# According to patent US12398185B2, “Peptoid blocking O-GlcNAcylated NF-kappaB c-Rel” (Case Western Reserve University, priority 2019, dated 2025):
# Non-standard residues stand in square brackets, D forms with d. Residues, ends and D or L forms follow the SMILES beside them. NFurfurylGly = O=C(O)CNCc1ccco1; Gly(N-CH2CH2OH) = O=C(O)CNCCO; Nphe = O=C(O)CNCc1ccccc1; NPrGly = CCCNCC(=O)O
# How the values were obtained:
# O-GlcNAcylated c-Rel [1] = target: T1, O-GlcNAcylated c-Rel (Homo sapiens, UniProt Q04864); test: TCR-induced O-GlcNAcylation-dependent GMCSF and IL-2 expression in Jurkat T cells; type: cell-based; settings: for expression of GMCSF / expression of IL-2: Compound 2 100 μM and 200 μM, 16 hours, FIG. 3
# T1 construct: endogenous in cells; host or cells: Jurkat T cells
# T1 sequence (Q04864 1-619): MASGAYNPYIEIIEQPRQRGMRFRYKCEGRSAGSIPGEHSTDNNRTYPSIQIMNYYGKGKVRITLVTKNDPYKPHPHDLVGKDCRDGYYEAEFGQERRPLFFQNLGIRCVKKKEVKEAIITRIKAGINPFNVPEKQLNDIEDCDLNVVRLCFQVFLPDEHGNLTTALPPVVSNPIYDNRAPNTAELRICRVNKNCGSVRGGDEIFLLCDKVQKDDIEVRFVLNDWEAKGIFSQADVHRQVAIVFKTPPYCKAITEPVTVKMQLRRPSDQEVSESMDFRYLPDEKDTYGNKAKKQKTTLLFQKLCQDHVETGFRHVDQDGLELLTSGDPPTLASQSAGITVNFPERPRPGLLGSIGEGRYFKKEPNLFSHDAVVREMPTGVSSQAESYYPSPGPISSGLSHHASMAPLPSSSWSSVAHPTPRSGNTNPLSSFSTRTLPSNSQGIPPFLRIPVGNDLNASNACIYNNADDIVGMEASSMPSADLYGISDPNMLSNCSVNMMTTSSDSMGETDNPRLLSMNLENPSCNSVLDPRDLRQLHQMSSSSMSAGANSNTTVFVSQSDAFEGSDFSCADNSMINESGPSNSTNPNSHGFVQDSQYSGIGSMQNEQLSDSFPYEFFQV
# Experimental: It is further known that a mutation of c-Rel at S350 completely abrogates T cell receptor (TCR)-induced O-GlcNAcylation-dependent expression of GMCSF and IL-2 (Ramakrishnan, 2013). Thus, the specific inhibition of c-Rel O-GlcNAcylation by Compound 2 was studied. Jurkat cells were grown in RPMI medium at 1×10^6 cells/2 mL. The cells were treated with compound 2 (100 μM and 200 μM) for 16 hours. Cell death was assessed by propidium iodide (Biolegend) staining and flow cytometry. Following treatment with Compound 2, the resulting expression of GMCSF and IL-2 was measured. […] Further, treatment with Compound 2 specifically affected only the O-GlcNAcylation-dependent enhancement of IL-2 and GMCSF expression.
# The range of concentrations at which Compound 2 is effective in suppression O-GlcNAcylation c-Rel function was studied. Jurket cells were exposed to Compound 2 in concentrations of 2 mM, 500 μM, 200 μM, 100 μM, 50 μM and 10 μM peptoid on TCR-induced GMCSF expression.
# The effect of the scrambled peptoid, Compound 3, was also studied (FIG. 3, bottom right panel).
# c-Rel = target: T2, c-Rel (Homo sapiens, UniProt Q04864); test: Nuclear translocation of c-Rel, Western blot of cytoplasmic and nuclear extracts; type: cell-based; settings: FIG. 6 top
# T2 construct: endogenous in cells
# T2 sequence (Q04864 1-619): T1 sequence (Q04864 1-619)
# Experimental: Activation of c-Rel involves signal-induced translocation of c-Rel from the cytoplasm to the nucleus and its subsequent DNA binding and gene expression. Thus, the effect of treatment with Compound 2 and Compound 3 (comparative) on nuclear translocation of c-Rel were examined. Cytoplasmic and nuclear extracts were prepared and Western blotting was performed as described in DeJesus, T. J. and Ramakrishnan, P. “NF-kappaB c-Rel Dictates the Inflammatory Threshold by Acting as a Transcriptional Repressor.” iScience 23, 100876 (2020).
# O-GlcNAcylated c-Rel [2] = target: T1, O-GlcNAcylated c-Rel; test: Oligonucleotide pull down assay, c-Rel binding to CD28RE DNA; settings: Jurket cells, anti-CD3/CD28 and Thiamet-G; Compound 2 at 50 μM
# Experimental: Oligonucleotide pull down assays were performed to examine whether Compound 2 binds to O-GlcNAcylated c-Rel and thus, competitively prevents its binding to CD28RE. Jurket cells were treated with anti-CD3/CD28 antibodies to trigger TCR activation and c-Rel nuclear translocation. Cells were contacted with Thiamet-G (an O-GlcNAse inhibitor) (Sigma Aldrich) to enhance cellular O-GlcNAcylation.
# Leukemia K562 cells = test: Cell death in leukemia K562 cells; type: cell-based; settings: Compound 2 at 100 μM; compared with OSMI1 at 50 μM; FIG. 8
# Experimental: The effect of Compound 2 on […] cells was studied. Leukemia K562 cells were treated with HBP inhibitor OSMI1 (50 μM) or Compound 2 (100 μM). Scrambled peptoid Compound 3 was used as a control.
# Jurket cells = test: Toxicity, cell death by propidium iodide staining and flow cytometry, Jurkat; type: cell-based
# Experimental: (§1) The toxicity of Compound 2 was studied at 100 μM and 200 μM concentrations in Jurket cells (FIG. 5, left), BJAB B cells (FIG. 5, middle left), human primary CD4^+ T cells (FIG. 5, middle right), and human primary monocytes (FIG. 5, right). Cell death was assessed by propidium iodide staining and flow cytometry. […] Treatment with cycloheximide (CHX) (Sigma Aldrich), a generic inhibitor of translation, was used as a positive control for cell death induction.
# BJAB B cells = test: Toxicity, cell death by propidium iodide staining and flow cytometry, BJAB; type: cell-based
# Experimental: as §1
# [3] = tested on: human primary CD4+ T cells; test: Toxicity, cell death by propidium iodide staining and flow cytometry, primary CD4+ T cells; type: cell-based
# Experimental: as §1
# O-GlcNAcylated c-Rel [4] = target: T3, O-GlcNAcylated c-Rel (Homo sapiens, UniProt Q04864); test: TCR-induced O-GlcNAcylated-c-Rel-dependent gene expression in primary CD4+ T cells; type: cell-based; settings: 100 μM
# T3 construct: endogenous in cells; host or cells: primary CD4+ T cells from human PBMC
# T3 sequence (Q04864 2-587 isoform Q04864-2): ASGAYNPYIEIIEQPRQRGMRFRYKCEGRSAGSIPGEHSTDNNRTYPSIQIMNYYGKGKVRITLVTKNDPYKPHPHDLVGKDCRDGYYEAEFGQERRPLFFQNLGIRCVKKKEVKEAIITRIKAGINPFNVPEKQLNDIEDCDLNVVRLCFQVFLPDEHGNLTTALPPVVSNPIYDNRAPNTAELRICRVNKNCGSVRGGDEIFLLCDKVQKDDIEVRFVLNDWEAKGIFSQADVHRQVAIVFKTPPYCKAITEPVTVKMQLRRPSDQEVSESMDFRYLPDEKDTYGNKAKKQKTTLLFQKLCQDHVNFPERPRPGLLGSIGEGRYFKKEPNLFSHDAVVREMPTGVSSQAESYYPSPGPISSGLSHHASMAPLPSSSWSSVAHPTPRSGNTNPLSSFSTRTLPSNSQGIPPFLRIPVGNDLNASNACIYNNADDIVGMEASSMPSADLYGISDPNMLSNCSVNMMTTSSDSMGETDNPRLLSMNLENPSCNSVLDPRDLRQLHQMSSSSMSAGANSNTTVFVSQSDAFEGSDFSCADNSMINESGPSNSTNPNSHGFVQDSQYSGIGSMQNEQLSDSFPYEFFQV
# Experimental: The effect of Compound 2 was studied in primary CD4^+ T cells isolated from human peripheral blood mononuclear cells. CD4+ T cells were […] were isolated by magnetic sorting (Miltenyi Biotec) and cultured in supplemented RPMI medium. Cells were treated with 100 μM of Compound 2 twice—at the start of the experiment and at 24 hrs.
# B cells (BJAB) = test: Non-specific activity in B cells; type: cell-based
# Experimental: (§2) Compound 2 was further studied in B cells (BJAB) and macrophages (RAW 264.7). BJAB cells were grown in RPMI medium and RAW 264.7 cells were grown in DMEM medium supplemented with 100 U/mL penicillin/streptomycin, 4 mM L-glutamine and 10% fetal bovine serum.
# macrophages (RAW 264.7) = test: Non-specific activity in macrophages; type: cell-based; settings: RAW 264.7 cells
# Experimental: as §2
# human primary monocytes = test: Toxicity, cell death by propidium iodide staining and flow cytometry, primary monocytes; type: cell-based; settings: 100 μM and 200 μM, 40 hours post-treatment
# Experimental: as §1
# [5] = human primary T-cells, treated twice (start and 24 hrs)
structure (smiles),measurement,setting,value
"COc1ccccc1[C@@H](NS(=O)(=O)c1ccc2[nH]c(=O)ccc2c1)C(=O)N(Cc1ccco1)Cc1cccs1 [OSMI1, reference compound]",expression of GMCSF,O-GlcNAcylated c-Rel [1],well below the TCR-induced levels
same,expression of IL-2,O-GlcNAcylated c-Rel [1],well below the TCR-induced levels
CCCN(CC(=O)N(CC(N)=O)Cc1ccccc1)C(=O)CN(CCO)C(=O)CNCc1ccco1 [Compound 3] (H-[NFurfurylGly][Gly(N-CH2CH2OH)][NPrGly][Nphe]-NH2),"inhibitory effect on GMCSF expression, scrambled peptoid control",O-GlcNAcylated c-Rel [1]; FIG. 3 bottom right,no inhibitory effect
same,change in nuclear c-Rel levels,c-Rel,no significant change
same,binding of c-Rel to CD28RE DNA,O-GlcNAcylated c-Rel [2],did not block the binding of c-Rel
same,K562 cell death,Leukemia K562 cells,no significant cell death
"C[C@@H]1C[C@@H]([C@H](O)CC2CC(=O)NC(=O)C2)C(=O)[C@@H](C)C1 [CHX, cycloheximide, reference compound]","cell death, positive control","Jurket cells; Jurkat cells, 5 μg/mL, 16 hours post-treatment",significant cell death
same,"cell death, positive control","BJAB B cells; 5 μg/mL, 16 hours post-treatment",significant cell death
same,"cell death, positive control","[3]; human primary T cells, 5 μg/mL, 16 hours post-treatment",significant cell death
CCCNCC(=O)N(CC(=O)N(CC(=O)N(CCO)CC(N)=O)Cc1ccccc1)Cc1ccco1 [Compound 2] (H-[NPrGly][NFurfurylGly][Nphe][Gly(N-CH2CH2OH)]-NH2),TCR-induced expression levels of IL-2 and GMCSF (not O-GlcNAcylation-dependent),O-GlcNAcylated c-Rel [1],did not block
same,O-GlcNAcylation-dependent GMCSF expression,O-GlcNAcylated c-Rel [1]; 200 μM,near complete suppression
same,GMCSF expression levels at higher concentrations,O-GlcNAcylated c-Rel [1]; 500 μM and 2 mM,did not further decrease
same,expression of GMCSF,O-GlcNAcylated c-Rel [1],significantly decreased
same,expression of IL-2,O-GlcNAcylated c-Rel [1],significantly decreased
same,TCR-induced O-GlcNAcylation-dependent increase in expression of GMCSF,O-GlcNAcylated c-Rel [4]; [5],effectively and significantly decreased
same,TCR-induced O-GlcNAcylation-dependent increase in expression of IL-2,O-GlcNAcylated c-Rel [4]; [5],effectively and significantly decreased
same,"TCR-induced expression level of GMCSF, IL-2 and other NF-kappaB-induced genes such as A20 and I-kappa-B-alpha",O-GlcNAcylated c-Rel [4]; primary T cells,did not block
same,non-specific activity,B cells (BJAB),does not exhibit any non-specific activity
same,non-specific activity,macrophages (RAW 264.7),does not exhibit any non-specific activity
same,cell death,"Jurket cells; Jurket cells, 100 μM and 200 μM, 40 hours post-treatment",non-significant cell death
same,cell death,"BJAB B cells; 100 μM and 200 μM, 40 hours post-treatment",non-significant cell death
same,cell death,"[3]; human primary CD4+ T cells, 100 μM and 200 μM, 40 hours post-treatment",non-significant cell death
same,cell death,human primary monocytes,non-significant cell death
same,change in nuclear c-Rel levels,c-Rel,no significant change
same,binding of c-Rel to CD28RE DNA,O-GlcNAcylated c-Rel [2],reduced the binding of c-Rel
same,K562 cell death,Leukemia K562 cells,nearly comparable to that caused by known OGT inhibitor OSMI1
